Literature values, collected in patent US20220304980A1, “METERED DOSING COMPOSITIONS AND METHODS OF USE OF P[…]” (SW Holdings, Inc, priority 2019, published 2022).

Columns and labels:
5-HT2A receptor = 5-HT2A receptor (Homo sapiens, UniProt P28223); conditions: selective 5-HT2A antagonists; cited from earlier work
rat veins = conditions: cited from earlier work

Sequence of 5-HT2A receptor (P28223 whole entry): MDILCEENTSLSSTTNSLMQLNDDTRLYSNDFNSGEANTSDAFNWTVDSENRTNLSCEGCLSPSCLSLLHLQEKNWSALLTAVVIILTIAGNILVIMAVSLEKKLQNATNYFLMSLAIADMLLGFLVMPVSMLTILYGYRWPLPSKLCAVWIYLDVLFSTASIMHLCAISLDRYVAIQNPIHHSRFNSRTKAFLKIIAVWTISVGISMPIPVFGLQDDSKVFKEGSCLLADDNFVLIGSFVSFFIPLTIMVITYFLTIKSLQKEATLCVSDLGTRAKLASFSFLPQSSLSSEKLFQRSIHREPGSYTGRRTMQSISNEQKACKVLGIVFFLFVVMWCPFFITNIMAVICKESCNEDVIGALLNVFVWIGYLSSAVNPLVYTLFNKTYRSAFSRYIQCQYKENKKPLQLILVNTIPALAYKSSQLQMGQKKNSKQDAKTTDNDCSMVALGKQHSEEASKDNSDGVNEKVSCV

Compound	vascular effect (5-HT2A receptor)	effect on DOI-induced constriction of rat veins (rat veins; 5-HT2A antagonist)	effect on rat veins (rat veins; 5-HT2A agonist)
COc1cccc(CCc2ccccc2OCC(CN(C)C)OC(=O)CCC(=O)O)c1 (centres unmarked) [sarpogrelate]	vasodilating properties		
O=C(c1ccc(F)cc1)C1CCN(CCn2c(=O)[nH]c3ccccc3c2=O)CC1 [ketanserin]	vasodilating properties	blocked	
COc1cc(CC(C)N)c(OC)cc1I (centres unmarked) [DOI]			constricts rat veins
O=CN1CCC(C(=O)NCCN2CCC(=C3c4ccccc4C=Cc4ccccc43)CC2)CC1 [AT-1015]	vasodilating properties		
